Assay results reported in ChEMBL document CHEMBL1156159, “Synthesis, cytotoxic activity and structure-activity relationships of hedychenone analogues” (Bioorg Med Chem Lett, 2010).
Converted amounts (≈) assume the structure as drawn.

Legend:
HL-60 = assay: Cytotoxicity against human HL60 cells after 24 hrs; format: functional, cell-based
A-375 = assay: Cytotoxicity against human A375 cells after 24 hrs; format: functional, cell-based
CHO = assay: Cytotoxicity against CHO cells after 24 hrs; format: cell-based, Cricetulus griseus
MCF7 = assay: Cytotoxicity against human MCF7 cells after 24 hrs; format: functional, cell-based
A549 = assay: Cytotoxicity against human A549 cells after 24 hrs; format: functional, cell-based
[1] = Homo sapiens, HL-60, 24 h, read-out: IC50
[2] = Homo sapiens, A-375, 24 h, read-out: IC50
[3] = Cricetulus griseus, CHO, 24 h, read-out: IC50
[4] = Homo sapiens, MCF7, 24 h, read-out: IC50
[5] = Homo sapiens, A549, 24 h, read-out: IC50

Structure (SMILES)	IC50 (HL-60; [1]) [µg/mL]	IC50 (A-375; [2]) [µg/mL]	IC50 (CHO; [3]) [µg/mL]	IC50 (MCF7; [4]) [µg/mL]	IC50 (A549; [5]) [µg/mL]	IC50 (HL-60; hl-60) [µg/mL]	IC50 (A-375; a-375) [µg/mL]	IC50 (CHO; cho) [µg/mL]	IC50 (MCF7; mcf7) [µg/mL]	IC50 (A549; a549) [µg/mL]
CC1=CC(=O)[C@H]2C(C)(C)CCC[C@]2(C)[C@H]1/C=C/C1=C[C@@H]2O[C@@H]1[C@H]1C(=O)OC(=O)[C@H]12	28.1 (≈ 70.9 µM)	30.4 (≈ 76.7 µM)	12.1 (≈ 30.6 µM)	24.1 (≈ 60.8 µM)						
CC1=CC(=O)[C@H]2C(C)(C)CCC[C@]2(C)[C@H]1/C=C/C1=C[C@H]2O[C@H]1[C@@H]1C(=O)C=CC(=O)[C@@H]12	14.7 (≈ 36.2 µM)	20.1 (≈ 49.5 µM)	8.28 (≈ 20.4 µM)	15.4 (≈ 37.9 µM)						
CC1=CC(=O)[C@H]2C(C)(C)CCC[C@]2(C)[C@H]1/C=C/C1=C[C@H]2O[C@H]1[C@@H]1C(=O)OC(=O)[C@@H]12	17 (≈ 42.9 µM)	20.4 (≈ 51.4 µM)	10.4 (≈ 26.3 µM)	18.6 (≈ 46.9 µM)	39.9 (≈ 101 µM)					
CC1=CC(=O)[C@H]2C(C)(C)CCC[C@]2(C)[C@H]1/C=C/C1=CC2OC1C1OCCC21 (stereo partly drawn)	38.4 (≈ 104 µM)			30.1 (≈ 81.8 µM)	48.4 (≈ 131 µM)					
CC1=CC(=O)[C@H]2C(C)(C)CCC[C@]2(C)[C@H]1/C=C/C1=CC2OC1C1CCOC21 (stereo partly drawn)	38 (≈ 103 µM)	43.1 (≈ 117 µM)		33.9 (≈ 91.9 µM)						
CC1=CC(=O)[C@H]2C(C)(C)CCC[C@]2(C)[C@H]1[C@@H]1O[C@@H]1c1ccoc1	19.4 (≈ 61.8 µM)	26.1 (≈ 83.1 µM)	9.61 (≈ 30.6 µM)	20.1 (≈ 63.9 µM)	31.1 (≈ 99.1 µM)					
CC1CC(=O)[C@H]2C(C)(C)CCC[C@]2(C)[C@H]1CCc1ccoc1 (stereo partly drawn)	> 100	> 100		> 100						
CC1(C)CCC[C@@]2(C)[C@H]1C(=O)CC(C)(C1(C)CC(=O)[C@H]3C(C)(C)CCC[C@]3(C)C1/C=C/c1ccoc1)[C@@H]2/C=C/c1ccoc1 (stereo partly drawn)	13.9 (≈ 23.1 µM)	16.8 (≈ 28.1 µM)	6.91 (≈ 11.5 µM)	11.2 (≈ 18.7 µM)	23 (≈ 38.4 µM)					
CC1=CC(=O)[C@H]2C(C)(C)CCC[C@]2(C)[C@H]1C=O	39.7 (≈ 169 µM)	35.1 (≈ 150 µM)	34.9 (≈ 149 µM)	38.1 (≈ 163 µM)						
CC1=CC(=O)[C@H]2C(C)(C)CCC[C@]2(C)[C@H]1CCc1ccoc1	87 (≈ 290 µM)	60 (≈ 200 µM)		> 100						
CC1=CC(=O)[C@H]2C(C)(C)CCC[C@]2(C)[C@H]1/C=C/C1=C[C@H]2O[C@H]1[C@H]1C(=O)C=CC(=O)[C@H]12	14.1 (≈ 34.6 µM)	19 (≈ 46.8 µM)	8.19 (≈ 20.1 µM)	15.7 (≈ 38.7 µM)	35.9 (≈ 88.3 µM)					
CC1=CC(=O)[C@H]2C(C)(C)CCC[C@]2(C)[C@H]1/C=C/C1=C[C@H]2O[C@H]1[C@H]1C(=O)OC(=O)[C@H]12 (stereo in doubt; 3b)	16.9 (≈ 42.7 µM)	20 (≈ 50.5 µM)	9.11 (≈ 23 µM)	17 (≈ 42.9 µM)	36.4 (≈ 91.9 µM)					
CC1=CC(=O)[C@H]2C(C)(C)CCC[C@]2(C)[C@H]1/C=C/C1=C[C@H]2O[C@H]1[C@H]1C(=O)OC(=O)[C@H]12 (stereo in doubt; 3c)						21.73 (≈ 54.8 µM)	27.84 (≈ 70.2 µM)	11.08 (≈ 27.9 µM)	23.18 (≈ 58.5 µM)	
COC1CCC2C3C=C(/C=C/[C@H]4C(C)=CC(=O)[C@H]5C(C)(C)CCC[C@]45C)C(O3)C2O1 (stereo in doubt; 3g)	27.7 (≈ 67.1 µM)	30.2 (≈ 73.2 µM)	13.1 (≈ 31.7 µM)	28.1 (≈ 68.1 µM)	43.2 (≈ 105 µM)					
COC1CCC2C3OC(C=C3/C=C/[C@H]3C(C)=CC(=O)[C@H]4C(C)(C)CCC[C@]34C)C2O1 (stereo in doubt; 3h)	27.1 (≈ 65.8 µM)	32.1 (≈ 77.9 µM)	14.1 (≈ 34.3 µM)	28 (≈ 67.8 µM)	43 (≈ 104 µM)					
COC1CCC2C3C=C(/C=C/[C@H]4C(C)=CC(=O)[C@H]5C(C)(C)CCC[C@]45C)C(O3)C2O1 (stereo in doubt; 3i)						28.41 (≈ 68.9 µM)	31.12 (≈ 75.4 µM)	13.91 (≈ 33.7 µM)	29.3 (≈ 71 µM)	47.71 (≈ 116 µM)
COC1CCC2C3OC(C=C3/C=C/[C@H]3C(C)=CC(=O)[C@H]4C(C)(C)CCC[C@]34C)C2O1 (stereo in doubt; 3j)								14.03 (≈ 34 µM)		
CC1=CC(=O)[C@H]2C(C)(C)CCC[C@]2(C)[C@H]1/C=C/C1=CC2OC1C1C(=O)c3ccccc3C(=O)C21 (stereo in doubt; 3k)	13.7 (≈ 30 µM)	18.7 (≈ 41 µM)	7.94 (≈ 17.4 µM)	15 (≈ 32.8 µM)						
CC1=CC(=O)[C@H]2C(C)(C)CCC[C@]2(C)[C@H]1/C=C/C1=CC2OC1C1C(=O)c3ccccc3C(=O)C21 (stereo in doubt; 3l)					34.5 (≈ 75.5 µM)	13.88 (≈ 30.4 µM)	18.64 (≈ 40.8 µM)	7.91 (≈ 17.3 µM)	14.72 (≈ 32.2 µM)	
CC1=CC(=O)[C@H]2C(C)(C)CCC[C@]2(C)[C@H]1/C=C/C1=CC2OC1C1CNCC21 (stereo in doubt; 3o)	39.9 (≈ 108 µM)		19.2 (≈ 52.2 µM)	36.7 (≈ 99.9 µM)						
CC1=CC(=O)[C@H]2C(C)(C)CCC[C@]2(C)[C@H]1/C=C/C1=CC2OC1C1CNCC21 (stereo in doubt; 3p)						43.18 (≈ 117 µM)			31.98 (≈ 87 µM)	
CC1=CC(=O)[C@H]2C(C)(C)CCC[C@]2(C)[C@H]1/C=C/c1ccoc1 [HEDYCHENONE]	17.7 (≈ 59.2 µM)	21.1 (≈ 70.8 µM)	8.2 (≈ 27.5 µM)	19.4 (≈ 65 µM)	33.1 (≈ 111 µM)					
CC1(C)CCC[C@]2(C)[C@@H](/C=C/c3ccoc3)C(CO)=CC(=O)[C@@H]12 [YUNNACORONARIN D]	26.2 (≈ 83.3 µM)	40 (≈ 127 µM)	39 (≈ 124 µM)	34.3 (≈ 109 µM)	50.1 (≈ 159 µM)					
